Several values for one entry are separate records, joined by “and”; a condition that tells them apart may be missing. Equal values may be shown once. Entries after “also recorded” stand apart in the source; their conditions may differ. Read-outs that look alike come from different tables or passages of the source.
How the values were obtained:
[1] = cited from earlier work
cardiac muscle [2] = assay: NAPA effect after pretreatment with propranolol; type: in vivo
cardiac muscle [3] = assay: Cardiovascular effects of procainamide and NAPA, for comparison with NAPADE; type: in vivo; details: procainamide or NAPA; for effect on force of contraction of the heart muscle (inotropic effect): procainamide at 60 mg/kg i.v. as a 15 minute infusion, 60 mg/kg
cardiac muscle [4] = assay: Cardiovascular effects in chloralose-urethane anesthetized dogs (myocardial force, heart rate, mean arterial pressure); type: in vivo, dog (male mongrel)
Description: We have investigated the cardiovascular effects of NAPADE in animal models and have observed the following unique properties of NAPADE: […]
(§1) Myocardial force, mean arterial pressure and heart rate are expressed as the percent change from baseline for each experimental group. Statistical analysis was done with analysis of variance for repeated measurements and Duncan's multiple range test. All values are mean ± SEM.

[5] = NAPADE pharmacokinetics in chloralose-urethane anesthetized dogs (HPLC plasma levels, two-compartment model); type: in vivo, dog (male mongrel)
Procedure: Blood samples were obtained over a period of 5-120 minutes to measure NAPADE plasma concentration by high-performance liquid chromatography (HPLC) and to construct a plasma concentration versus time curve of FIG. 1.
The pharmacokinetics of NAPADE were analyzed with a two-compartment model with elimination from the central compartment. The method of residuals was used to resolve the exponential components of each plasma concentration versus time curve and to obtain estimates of alpha and beta (first-order rate constants) and A and B intercepts corrected to 0-time using the method of Loo and Reigelman. These parameters were then used to estimate apparent volume of distribution (V central, V peripheral, V total) and clearance values (Cl intercompartmental, Cl elimination) for each dog according to standard pharmacokinetic methodology.

β-adrenergic receptor = assay: Cardiovascular effects of NAPADE after pretreatment with propranolol in anesthetized dogs; type: in vivo, dog (male mongrel)
Description: as §1

[6] = mice; cited from earlier work
[7] = NAPADE-HCl 60 mg/kg, 15-minute IV infusion
[8] = individual dogs No. 1-8, one line per dog, NAPADE-HCl 60 mg/kg, 15-minute IV infusion, 60 mg/kg
[9] = NAPADE-HCl 60 mg/kg IV after propranolol 0.5 mg/kg followed by 10 μg/kg/min

Q: Which results are given for `CCN(CC)CCNC(=O)c1ccc(NC(C)=O)cc1` [NAPA, N-acetylprocainamide]?
A: elimination half-life ([1]; NAPA in the dog, approximate): approximately six; elimination clearance ([1]; NAPA in the dog): 2.64 ± 0.9 mL/min/kg; apparent volume of distribution (Vtotal) ([1]; NAPA, previous studies): 1.48 ± 0.16 L/kg; inotropic action after propranolol pretreatment (cardiac muscle [2]): negative inotropic action is apparent; effect on blood pressure (hypotensive effect) (cardiac muscle [3]): exhibiting hypotensive effects; effect on heart rate (cardiac muscle [3]): decreasing the heart rate; effect on force of contraction of the heart muscle (inotropic effect) (cardiac muscle [3]): increases the force of contraction of heart muscle; also recorded: positive inotropic effects

Q: Which “duration of inotropic and chronotropic actions” value (cardiac muscle [4]; NAPADE-HCl 60 mg/kg IV) does the source give for `CCNCCNC(=O)c1ccc(NC(C)=O)cc1` [NAPADE, Desethyl-N-acetylprocainamide] here?
A: The value was 50 to 90 min.

Q: And the “duration of significantly increased myocardial force” value (cardiac muscle [4]; NAPADE-HCl 60 mg/kg IV, compared to the control group)?
A: The value was 90 min.

Q: What about the “duration of significantly increased heart rate” value (cardiac muscle [4]; NAPADE-HCl 60 mg/kg IV, over control) of the same molecule?
A: The value was 50 min.

Q: What about the “time of peak effects (inotropic and chronotropic)” value (cardiac muscle [4]; [7]) of the same molecule?
A: Its value is 15 min.

Q: And the “maximum increase in heart rate over baseline” value (cardiac muscle [4]; NAPADE-HCl 60 mg/kg, 15-minute IV infusion, mean ± SEM)?
A: Its value is 22.2±4.4 percent over baseline.

Q: And the “maximum increase in myocardial force over baseline” value (cardiac muscle [4]; NAPADE-HCl 60 mg/kg, 15-minute IV infusion, right ventricular, mean ± SEM)?
A: The value was 48.9±10 percent over baseline.

Q: And the “effect on blood pressure (hypotensive effect)” value (cardiac muscle [4]; NAPADE, result in words)?
A: Its value is “lacks significant hypotensive effects; also recorded: small and statistically insignificant changes in blood pressure; also recorded: without significant changes in systemic arterial pressure”.

Q: What about the “effect on heart rate (chronotropic effect)” value (cardiac muscle [4]; NAPADE, result in words) of the same molecule?
A: Its value is “positive chronotropic effect; also recorded: significant increases in myocardial force and heart rate; also recorded: significant positive inotropic and chronotropic actions”.

Q: And the “effect on myocardial force of contraction (inotropic effect)” value (cardiac muscle [4]; NAPADE, result in words)?
A: Its value is “positive inotropic effects; also recorded: very significant increase in myocardial force of contraction; also recorded: significant increases in myocardial force; also recorded: significant positive inotropic and chronotropic actions”.

Q: What about the “decline of plasma concentrations / kinetics of elimination” value [5, 7] of the same molecule?
A: The value was “declined in a bi-exponential fashion; also recorded: bi-exponential kinetics of elimination”.

Q: What about the “apparent volume of distribution, NAPADE as a fraction of NAPA value” ([5]; compared with NAPA from previous studies) of the same molecule?
A: The value was “approximately one-third”.

Q: And the half-life ([5]; dog, plasma, iv, 60 mg/kg, individual dogs No. 1-8, one line per dog, NAPADE-HCl 60 mg/kg, 15-minute IV infusion, read-out: T1/2(BETA) (elimination half-life))?
A: Its half-life is 55 min.

Q: What about the half-life ([5]; dog, plasma, iv, 60 mg/kg, mean of 8 dogs (± SEM in text), NAPADE-HCl 60 mg/kg, 15-minute IV infusion, read-out: T1/2 beta (terminal / elimination half-life)) of the same molecule?
A: Its half-life is 54.5 ± 2.9 min.

Q: And the clearance ([5]; dog, plasma, iv, 60 mg/kg, mean of 8 dogs, NAPADE-HCl 60 mg/kg, 15-minute IV infusion, read-out: ClELIMINATION (elimination clearance))?
A: The clearance was 8.56 mL/min/kg.

Q: What about the Vd ([5]; dog, plasma, iv, 60 mg/kg, mean of 8 dogs, NAPADE-HCl 60 mg/kg, 15-minute IV infusion, read-out: VCENTRAL (volume of the central compartment)) of the same molecule?
A: Its Vd is 0.153 L/kg.

Q: What about the Vd ([5]; dog, plasma, iv, 60 mg/kg, mean of 8 dogs, NAPADE-HCl 60 mg/kg, 15-minute IV infusion, read-out: VTOTAL (total apparent volume of distribution)) of the same molecule?
A: Its Vd is 0.513 L/kg.

Q: What about the Cmax at 0.25 h ([5]; dog, plasma, NAPADE-HCl 60 mg/kg, 15-minute IV infusion, at 15 minutes, mean ± SEM, read-out: peak NAPADE concentrations (plasma)) of the same molecule?
A: Its Cmax at 0.25 h is 165 ± 18.1 µg/mL.

Q: And the Tmax ([5]; dog, plasma, NAPADE-HCl 60 mg/kg, 15-minute IV infusion, read-out: time of peak plasma concentrations (converted))?
A: The Tmax was 15 min.

Q: And the “ClINTERC. (intercompartmental clearance)” value ([5]; individual dogs No. 1-8, one line per dog, NAPADE-HCl 60 mg/kg, 15-minute IV infusion)?
A: The value was 7.46 mL/min/kg and 9.99 mL/min/kg and 24.67 mL/min/kg and 9.91 mL/min/kg and 24.12 mL/min/kg and 22.45 mL/min/kg and 9.31 mL/min/kg and 15.77 mL/min/kg.

Q: And the “ClELIMINATION (elimination clearance)” value [5, 8]?
A: The value was 8.17 mL/min/kg and 4.99 mL/min/kg and 12.61 mL/min/kg and 7.34 mL/min/kg and 13.11 mL/min/kg and 11.54 mL/min/kg and 5.75 mL/min/kg and 5 mL/min/kg.

Q: And the “T1/2(BETA) (elimination half-life)” value [5, 8]?
A: The value was 60 min and 67 min and 57 min and 56 min and 40 min and 47 min and 54 min.

Q: What about the “VTOTAL (total apparent volume of distribution)” value [5, 8] of the same molecule?
A: The value was 0.447 L/kg and 0.342 L/kg and 0.893 L/kg and 0.476 L/kg and 0.806 L/kg and 0.499 L/kg and 0.293 L/kg and 0.346 L/kg.

Q: What about the “ClINTERC. (intercompartmental clearance)” value ([5]; mean of 8 dogs, NAPADE-HCl 60 mg/kg, 15-minute IV infusion) of the same molecule?
A: The value was 15.46 mL/min/kg.

Q: And the “ClELIMINATION (elimination clearance)” value ([5]; mean of 8 dogs, NAPADE-HCl 60 mg/kg, 15-minute IV infusion, 60 mg/kg)?
A: Its value is 8.56 ± 1.2 mL/min/kg.

Q: And the “negative inotropic (myocardial depressant) effect after propranolol pretreatment” value (β-adrenergic receptor; NAPADE in the presence of β-adrenergic receptor blockade with propranolol)?
A: Its value is “lacks negative inotropic effects; also recorded: No such effect was seen”.

Q: And the “blood pressure effect after propranolol pretreatment” value (β-adrenergic receptor; [9])?
A: The value was “only a mild decrease in blood pressure; also recorded: seemed to potentiate the mild hypotensive actions; also recorded: potentiated the mild hypotensive actions”.

Q: And the “chronotropic action after propranolol pretreatment” value (β-adrenergic receptor; [9])?
A: Its value is “abolishes the positive inotropic and chronotropic actions; also recorded: effectively blocked the positive inotropic and chronotropic actions”.

Q: What about the “inotropic action after propranolol pretreatment” value (β-adrenergic receptor; [9]) of the same molecule?
A: The value was “abolishes the positive inotropic and chronotropic actions; also recorded: effectively blocked the positive inotropic and chronotropic actions”.

Q: And the antifibrillatory activity [6]?
A: Its antifibrillatory activity is “antifibrillatory activity”.

Q: For `CCN(CC)CCNC(=O)c1ccc(N)cc1` [procainamide, Procainamide], which “effect on blood pressure (hypotensive effect)” value (cardiac muscle [3]) is on record?
A: The value was “exhibits hypotensive effects”.

Q: And the “effect on heart rate” value (cardiac muscle [3])?
A: The value was “decreases the heart rate”.

Q: And the “effect on force of contraction of the heart muscle (inotropic effect)” value (cardiac muscle [3])?
A: Its value is “decreases the force of contraction of the heart muscle; also recorded: negative inotropic effect”.
